From ChEMBL document CHEMBL5614433, “The "Doorstop Pocket" In Thioredoxin Reductases─An Unexpected Druggable Regulator of the Catalytic Machinery” (J Med Chem, 2024) come the findings set out here.

Structures are written as SMILES. A value given as a limit tells only on which side of the number the result lay.

Series [1] in a line: Inhibition of human TrxR1 incubated for 6 hrs in presence of NADPH.
Series [2] has as its target T1, Thioredoxin glutathione reductase (Schistosoma mansoni) (UniProt Q962Y6).
T1 sequence (whole entry): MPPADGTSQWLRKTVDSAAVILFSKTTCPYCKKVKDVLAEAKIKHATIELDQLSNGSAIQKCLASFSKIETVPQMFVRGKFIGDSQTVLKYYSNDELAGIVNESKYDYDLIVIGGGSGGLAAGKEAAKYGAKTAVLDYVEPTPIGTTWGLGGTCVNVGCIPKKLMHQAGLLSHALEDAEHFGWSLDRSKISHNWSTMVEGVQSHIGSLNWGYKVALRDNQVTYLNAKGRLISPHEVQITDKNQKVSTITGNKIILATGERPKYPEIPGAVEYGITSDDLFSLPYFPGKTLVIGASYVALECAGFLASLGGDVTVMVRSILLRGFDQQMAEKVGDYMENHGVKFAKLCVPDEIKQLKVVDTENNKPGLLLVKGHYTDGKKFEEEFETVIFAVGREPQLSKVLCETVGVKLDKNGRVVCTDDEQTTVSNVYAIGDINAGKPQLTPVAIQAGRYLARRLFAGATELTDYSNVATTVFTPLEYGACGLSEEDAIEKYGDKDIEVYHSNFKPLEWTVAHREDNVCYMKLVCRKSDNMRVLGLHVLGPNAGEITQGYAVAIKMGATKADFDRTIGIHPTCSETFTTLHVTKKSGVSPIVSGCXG
Description: Inhibition of Schistosoma mansoni TGR at 66.7 uM incubated for 6 hrs in presence of NADPH.

The nature of series [3]: Inhibition of human TrxR1 incubated for 15 mins in presence of NADPH.
Series [4] in a line: Inhibition of human TrxR1.
In series [5] the target is T2, Thioredoxin glutathione reductase (Schistosoma mansoni, UniProt Q962Y6).
T2 sequence (Q962Y6 whole entry): T1 sequence (whole entry)
The series is described as follows: Inhibition of Schistosoma mansoni TGR incubated for 15 mins in presence of NADPH.

A short description of series [6]: Cytotoxicity against african green monkey Vero cells measured after 24 hrs. The conditions noted are these: chlorocebus sabaeus, read-out: LD50. It is filed as toxicity, cell-based.
Series [7] in a line: Selectivity ratio of IC50 for human TrxR1 to IC50 for Schistosoma mansoni TGR.
A further series relates to Schistosoma mansoni. The series is described as follows: Schistosomicidal-activity against Schistosoma mansoni adult worm measured after 24 hrs. It counts as functional. The conditions noted are these: read-out: LD50 (the source's name).

In general, IC50 refers to the concentration that inhibits the measured activity by half. As usually defined, the inhibition is the change of the read-out against control, counted positive when it falls. As to `Cc1oc(-c2ccc3ccccc3c2)nc1CNC1CCCCCC1`, the half-maximal inhibitory concentration (IC50) in series [1] was greater than 19 µM. For the same molecule, the inhibition in series [2] turned out to be 28.7%.

In the case of `CCc1ccccc1-c1nc(CN[C@@H]2C[C@@H]3C[C@H]([C@H]2C)C3(C)C)c(C)o1`, the IC50 in series [1] was greater than 19 µM. The inhibition in series [2] is 28.7%.

For the molecule `Cc1oc(-c2ccccc2)nc1CN[C@@H]1C[C@@H]2C[C@H]([C@H]1C)C2(C)C`, in series [1], the IC50 is greater than 19 µM. Further, the inhibition in series [2] is 28.7%.

In the case of `C[C@@H]1[C@H]2C[C@@H](C[C@H]1NCc1nc3ccccc3n1C1CCCCCC1)C2(C)C`, the IC50 in series [3] turned out to be 4.9 µM.

In series [4], `O=C(Nc1ccc(Cl)cc1)c1ccc([N+](=O)[O-])o1` displayed an IC50 of 3.8 µM.

For the molecule `Cc1oc(C2CCCCC2)nc1CN[C@@H]1C[C@@H]2C[C@H]([C@H]1C)C2(C)C`, in series [1], the 50% inhibitory concentration (IC50) is greater than 19 µM. Further, the inhibition in series [2] worked out at 28.7%.

With `C[C@@H]1[C@H]2C[C@@H](C[C@H]1NCc1cn([C@@H]3OC[C@@H](O)[C@H](O)[C@H]3O)c3ccccc13)C2(C)C`, the IC50 in series [5] amounted to 57.5 µM.

Regarding `C#CCN(Cc1nc(-c2ccccc2)oc1C)C1C[C@@H]2C[C@H]([C@H]1C)C2(C)C` (stereo partly drawn), the figures for the IC50 in series [5] and in series [3] were 2.5 µM and greater than 66.7 µM, respectively. In series [6], the CC50 at 24 h was greater than 100 µM. Besides, the Ratio IC50 in series [7] was 25. Further, the LC50 in the series with Schistosoma mansoni was determined as 15.7 µM.

For `Cc1oc(-c2ccc3c(c2)OCO3)nc1CN[C@@H]1C[C@@H]2C[C@H]([C@H]1C)C2(C)C`, in series [1], the IC50 was greater than 19 µM. Besides, the inhibition in series [2] was determined as 28.7%.
